In the oligonucleotide strings, read from the 5' end, every base follows the letter of its sugar. An asterisk marks phosphorothioate; unmarked linkages are phosphodiester. Other units and linkages are bracketed, terminal groups are in braces. A string of capitals states the bases alone. m = 2'-O-methyl
Columns and labels:
TLR8 = molecular target: T1, TLR8 (Homo sapiens, UniProt Q9NR97); experiment: R848-driven IP-10 production in THP-1 cells (TLR8); assay type: cell-based; set-up: expressed in transfected cells; conditions: 3mer 2'OMe ASO at 1 uM; raw values, Ligand only = 355.752, NT = 134.831;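 note: IP-10 by ELISA in supernatant after 7 h R848 stimulation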
T1 sequence (Q9NR97 27-1041): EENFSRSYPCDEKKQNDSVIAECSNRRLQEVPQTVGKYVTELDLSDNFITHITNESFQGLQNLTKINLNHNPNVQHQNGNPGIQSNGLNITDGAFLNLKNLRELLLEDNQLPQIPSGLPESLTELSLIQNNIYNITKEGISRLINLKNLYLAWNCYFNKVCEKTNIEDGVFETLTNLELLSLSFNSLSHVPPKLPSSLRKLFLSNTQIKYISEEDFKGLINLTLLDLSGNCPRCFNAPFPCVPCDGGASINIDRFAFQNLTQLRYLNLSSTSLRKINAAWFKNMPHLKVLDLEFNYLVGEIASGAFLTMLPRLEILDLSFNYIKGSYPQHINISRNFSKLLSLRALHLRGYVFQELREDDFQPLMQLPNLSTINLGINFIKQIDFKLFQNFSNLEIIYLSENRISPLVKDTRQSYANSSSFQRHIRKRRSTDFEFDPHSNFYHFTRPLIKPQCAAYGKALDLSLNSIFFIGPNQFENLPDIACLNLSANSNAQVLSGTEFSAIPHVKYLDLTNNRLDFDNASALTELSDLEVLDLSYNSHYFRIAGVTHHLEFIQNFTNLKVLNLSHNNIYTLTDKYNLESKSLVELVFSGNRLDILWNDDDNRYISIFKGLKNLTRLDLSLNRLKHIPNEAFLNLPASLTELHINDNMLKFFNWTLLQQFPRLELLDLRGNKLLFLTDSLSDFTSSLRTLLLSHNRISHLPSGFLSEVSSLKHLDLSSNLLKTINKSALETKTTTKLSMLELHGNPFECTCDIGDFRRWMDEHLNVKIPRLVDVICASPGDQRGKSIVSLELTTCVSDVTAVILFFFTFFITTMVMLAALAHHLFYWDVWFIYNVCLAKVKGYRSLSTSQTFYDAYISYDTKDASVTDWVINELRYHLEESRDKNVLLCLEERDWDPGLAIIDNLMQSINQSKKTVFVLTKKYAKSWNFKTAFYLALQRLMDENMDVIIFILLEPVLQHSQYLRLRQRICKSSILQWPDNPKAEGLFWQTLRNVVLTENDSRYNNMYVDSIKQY

TLR3 = molecular target: T2, TLR3 (Homo sapiens, UniProt O15455); experiment: HEK-TLR3 NF-κB-luciferase reporter, poly(I:C) stimulation; assay type: cell-based; set-up: host or cells: HEK-Blue hTLR3 (HEK293)
T2 sequence (O15455 24-904): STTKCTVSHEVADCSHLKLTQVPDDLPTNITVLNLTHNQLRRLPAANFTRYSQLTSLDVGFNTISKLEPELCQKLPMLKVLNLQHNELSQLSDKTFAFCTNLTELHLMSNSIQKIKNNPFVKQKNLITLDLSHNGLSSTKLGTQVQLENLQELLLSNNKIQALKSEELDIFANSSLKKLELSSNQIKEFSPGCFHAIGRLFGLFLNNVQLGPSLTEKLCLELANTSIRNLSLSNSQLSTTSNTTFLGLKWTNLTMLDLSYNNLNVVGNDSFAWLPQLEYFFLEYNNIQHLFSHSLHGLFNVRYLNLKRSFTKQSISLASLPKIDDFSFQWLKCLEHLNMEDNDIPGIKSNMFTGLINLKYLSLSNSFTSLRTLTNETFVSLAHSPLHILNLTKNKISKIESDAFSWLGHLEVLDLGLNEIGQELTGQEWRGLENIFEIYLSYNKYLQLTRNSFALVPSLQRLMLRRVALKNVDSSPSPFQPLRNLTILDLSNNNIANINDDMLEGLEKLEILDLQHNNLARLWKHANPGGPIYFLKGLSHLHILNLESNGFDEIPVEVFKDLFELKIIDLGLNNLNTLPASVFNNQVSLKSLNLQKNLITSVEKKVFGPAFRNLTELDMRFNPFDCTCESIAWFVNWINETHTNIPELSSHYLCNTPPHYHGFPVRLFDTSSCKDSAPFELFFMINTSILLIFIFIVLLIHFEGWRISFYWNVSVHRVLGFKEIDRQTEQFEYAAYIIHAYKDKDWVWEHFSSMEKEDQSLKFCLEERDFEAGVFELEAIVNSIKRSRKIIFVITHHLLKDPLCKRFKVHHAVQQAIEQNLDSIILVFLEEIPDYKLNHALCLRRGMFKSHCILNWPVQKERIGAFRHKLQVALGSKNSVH

[1] = 3mer 2'OMe ASO at 2 uM, value relative to Ligand only = 1.000, NT = 0.000
[2] = 3-mers DNA PS 45 min, then 500 ng/ml polyI:C overnight, NF-κB-luciferase normalised to polyI:C only (Ligand 1.000, NT 0.000)

| Substance | TLR8 1 uM (TLR8) | TLR3 2uM (TLR3; [1]) | TLR3 2uM (TLR3; [2]) |
| --- | --- | --- | --- |
| AUA (antisense mA*mU*mA) | 157.293 | 0.570 |  |
| dA*dC*dA (DNA ACA; listed as RNA, chemistry not fully specified) | 262.630 | 1.053 | 0.832 |
| dC*dA*dC (CAC; listed as RNA, chemistry not fully specified) | 344.415 | 0.841 | 0.796 |
| mUmCmA (mU*mC*mA) [UCA, 3-mer 2′OMe PS oligo] | 1049.345 | 0.765 |  |
| dA*dG*dC (DNA AGC; listed as DNA, chemistry not fully specified) | 267.225 | 1.019 | 0.854 |
| CCU (mC*mC*mU) | 332.524 | 0.870 |  |
| UUG (listed as RNA, chemistry not fully specified) | 347.573 | 1.030 |  |
| GGU (mG*mG*mU) | 274.989 | 0.829 |  |
| AAU (antisense mA*mA*mU) | 202.802 | 0.888 |  |
